Data on one compound can be found in patent publication US20040265323A1, “Compositions comprising pathogen elicited epithelial chemoattractant (eicosanoid hepoxilin A3), inhibitors thereof and methods of use thereof” (priority 2003, published 2004).

“And” between values parts separate entries of the source, which are not always exact repeats. Equal values may be shown once. “Also recorded” adds a separate entry of the source.

Series [1] has as its system T84 monolayers. Put plainly: Recovery of hepoxilin A3 in basolateral compartment after apical application to T84 monolayers. As to conditions: apical application of 4500 pmoles, over 90 minutes. It is filed as in vitro ADME, human. On the procedure:
(§1) First, any potential gradient by adding excess synthetic hepoxilin A3 to the basolateral compartment was counteracted. […] The establishment of a hepoxilin A3 gradient was next measured quantitatively. […] Hepoxilin A3 decay in both compartments was exponential and the above stated T1/2 values were determined by analyzing the slope of a best-fit line to a log-linear analysis of each data set. Because of the complex degradation events occurring in both the apical and basolateral compartments, no attempt was made to calculate a transport rate. Instead, the extent of recovery of hepoxilin A3 from the basolateral compartment following an apical application of 4500 pmoles was measured.

The test system of series [2] is P. aeruginosa-induced PMN transepithelial migration, A549 cells. The experiment in a line: P. aeruginosa-induced PMN transepithelial migration across A549 cell monolayers. The series is classed as cell-based, human. Particulars: excess hepoxilin A3 added to basolateral compartment; data not shown. The text has this: It was further determined whether similar hepoxilin A3 recruitment of PMN by apically attached pathogens might occur at other mucosal surfaces. Pseudomonas aeruginosa is the most prominent bacterial spp. present during chronic infection in cystic fibrosis and chronic obstructive pulmonary disease patients and is accompanied by severe inflammation, including the emigration of PMN to the airway lumen (Pizurki et al., 2000; Jahn et al., 2000; Weiss, S. 1989). As a model for the airway epithelium the A549 cell line was used. This cell line is capable of forming a polarized barrier, and is widely employed as a model for the airway epithelial surface (Smart and Casale, 1994). […] Finally, the secretion of hepoxlin A3 in vitro was quantified using this A549 model system. For these experiments, A549 lung epithelial cells (ATTC) were grown in F12K media (Invitrogen) with 10% FBS, and maintained in culture similar to the T84 cell line. The wild type P. aeruginosa (PAO1) was used for infection of A549 after overnight aerobic growth (Luria broth) at 37° C.

Series [3] has as its system PMN transmigration across T84 cell monolayers. The experiment in a line: Disruption of hepoxilin A3 gradient by basolateral addition, PMN transepithelial migration across T84 monolayers. The series is classed as cell-based, human. Particulars: 5 μg/ml basolateral; migration induced by S. typhimurium, recombinant SipA or imposed gradients of hepoxilin A3. The text has this:
(§2) It was further examined if hepoxilin A3 acts in a gradient fashion to drive PMN migration from the basolateral to the apical epithelial surface. For these experiments, the physiologically directed (basolateral-to-apical) PMN transepithelial migration assay using cell culture inserts of inverted T84 monolayers has been used (McCormick et al., 1993; Parkos et al., 1992). Human PMN were isolated from normal volunteers, as described elsewhere (Parkos et al., 1992; Henson and Oades, 1975). PMN transmigration results were represented as PMN cell equivalents (CE) derived from a daily standard PMN dilution curve. PMN which completely traversed the monolayer were represented as the number of PMN (CE/ml in a total volume of 1 ml). Values were expressed as the mean and SD of an individual experiment done in triplicate repeated at least 3 times.
First, any potential gradient by adding excess synthetic hepoxilin A3 to the basolateral compartment was counteracted. […] The establishment of a hepoxilin A3 gradient was next measured quantitatively. […] Hepoxilin A3 decay in both compartments was exponential and the above stated T1/2 values were determined by analyzing the slope of a best-fit line to a log-linear analysis of each data set. […] Instead, the extent of recovery of hepoxilin A3 from the basolateral compartment following an apical application of 4500 pmoles was measured.

In series [4] the test system is PMN. The experiment in a line: PMN intracellular Ca2+ mobilization. It is filed as cell-based, human. The text has this: Further, crude PEEC preparations were collected from postinfected T84 cells monolayers. Samples were first passed through an Amicon ultra-filtration apparatus (Millipore Corp.; Bedford, Mass.) fitted with a 2,000 Da cut-off membrane. Filtrate components were bound to a Backerbond spe™ octadecyl extraction column (J. T. Baker; Philipsburg, N.J.) that was subsequently eluted with water, hexane, and finally methanol. The methanol fraction was dried under vacuum and resuspended in 50:50 (vol:vol) methanol:2 mM Tris HCl (pH 7.5) and injected onto a Vydac C18 (10 μm; 300 Å) semi-preparative column ([…]) equilibrated with 2 mM Tris-HCl (pH 7.5). A methanol gradient of 1-10% over 10 minutes, then 10-60% over 25 minutes, followed by 60-100% over 45 minutes (all at room temperature) was used to isolate active PEEC fractions. Active fractions, having no detectable absorbance at 280 nm and weak absorbance at 214 nm, were analyzed using a Genesis C18 (4 μm, 120 Å) analytical HPLC column (4.6×150 mm) equilibrated with 5 mM triethylamine/acetic acid (pH 7.2). […] (FIG. 2A and B).
(§3) To substantiate the notion that hepoxilin A3 was in fact the molecule responsible for PEEC bioactivity, it was examined whether synthetic hepoxilin A3 (BIOMOL, Plymouth Meeting, Pa.) could recapitulate PEEC bioactivity. […] Thus, authentic hepoxilin A3 recapitulates all known aspects of PEEC bioactivity consistent with the notion that hepoxilin A3 is in fact PEEC's active component.
(In general: Calcium assays in cells follow changes in intracellular calcium, usually with a dye or a luminescent sensor.)

For series [5], the system named is PMN. The experiment in a line: PMN degranulation assessed by elastase release. The series is classed as cell-based, human.
Description: as §3

The nature of series [6]: Stability in acidified acetonitrile. The series is classed as physicochemical. As to conditions: overnight incubation in acid. As to the method: Molecules of the 5-LO, 8-LO, 12-LO and 15-LO pathways of arachadonic metabolism were analyzed by LC/MS breakdown patterns and compared to PEEC. […] Methylation of PEEC samples and hepoxilin A3 also provided similar ion spectra (data not shown). […] PEEC activity was also observed to have other chemical properties similar to hepoxilin A3, such as being labile in the presence of acetonitrile/0.1% trifluoroacetic acid (FIG. 3D).

The test system of series [7] is PMN transmigration across T84 cell monolayers. Put plainly: PMN transepithelial migration to imposed gradients of lipids across T84 monolayers. The series is classed as cell-based, human. As to conditions: for PMN transepithelial migration (PEEC activity) induced by added lipid: imposed gradients across T84 cell monolayers, basolateral-to-apical. On the procedure:
Crude preparations of PEEC were collected from the apical surface of polarized T84 cell monolayers following infection with S. typhimurium SL1344 as previously described (McCormick et al., 1998). For these experiments, T84 intestinal epithelial cells (passages 45 to 65) were grown in a 1:1 mixture of Dulbecco-Vogt modified Eagles medium and Ham's F-12 medium supplemented with 15 mM Hepes buffer (pH 7.5), 14 mM NaHCO3, 40 mg/liter penicillin, 8 mg/liter ampicillin, 90 mg/liter streptomycin and 5% newborn calf serum. Polarized monolayers of T84 cells were formed and maintained on 0.33 cm^2 ring-supported collagen-coated polycarbonate filters (Costar Corp., Cambridge, Mass.) as previously described (Madara et al., 1992) with recently detailed modifications (Dharmsathaphorn and Madara, 1990). T84 cell monolayers reached a steady-state resistance 4 to 6 days after plating with some variability largely related to cell passage number. Cell culture inserts of inverted monolayers, used to study transmigration of PMN in the physiological basolateral-to-apical direction, were constructed as previously described (Madara et al., 1992; Dharmsathaphorn and Madara, 1990; Nash et al., 1991).
as §2
Arachidonic acid is the initial substrate used by a variety of metabolic pathways involving lipoxygenase (LO) activities—enzymes that add hydroxyl groups at specific carbon atoms of this 20-carbon fatty acid. […] Therefore, in addition to hepoxilin A3, a wide range of arachidonic acid metabolites for their ability to incite the transmigration of PMNs across T84 monolayers in vitro was examined (Table 1). […] This is consistent with previous reports that LTB4 is capable of inducing PMN transmigration.

The subject of series [8] is T84 monolayers. Put plainly: Hepoxilin A3 degradation in apical and basolateral compartments of T84 monolayers. The series is classed as in vitro ADME, human. Particulars: for time to 50% loss of intact compound (T1/2), average: average of two experiments. On the procedure: as §1

Turning to `CCCCC/C=C\C[C@@H]1O[C@H]1/C=C/C(O)C/C=C\CCCC(=O)O` (some centres unmarked) [hepoxilin A3], the “amount of intact compound recovered from the basolateral compartment” value in the series on T84 monolayers [1] is “low but detectable amount and low”. Also, the “P. aeruginosa-induced PMN transepithelial migration with gradient disruption” value in series [2] was “inhibited”. Further, the “effect of basolateral addition on PMN transepithelial migration” value in series [3] is “significantly diminished PMN transepithelial migration”. Besides, in the series with PMN [4], the “PMN intracellular Ca2+ mobilization” value was “elicited an increase in [Ca^2+] in PMN”. For the same compound, in the series on PMN [4] (5 μg/ml, FIG. 4B), the “intracellular Ca2+ in PMN” value is on record as “increase in intracellular Ca^2+”. Moreover, in the series on PMN [5], the PMN degranulation entry is “did not induce PMN degranulation; also recorded: not observed”. In addition, in series [6], the “stability in acetonitrile/0.1% trifluoroacetic acid” value is given as “labile”. For the same compound, the “PMN transepithelial migration induced by imposed gradients” value in series [7] (hepoxilin A3 0.5-5 μg/ml, FIG. 4A) is “induce PMN transepithelial migration in a dose dependent fashion”. Further, the figures for the “PMN transepithelial migration (PEEC activity) induced by added lipid” value in series [7] and in series [7] (listed as Hepoxilin A3) were “induced transepithelial migration” and “saturated response”, respectively. For the same compound, the “time to 50% loss of intact compound (T1/2), single experiments” value in the series with T84 monolayers [8] (apical chamber) was 77 min and 87 min; with T84 monolayers [8] (basolateral compartment), 49 min and 37.5 min. In addition, the “time to 50% loss of intact compound (T1/2), average” value was determined as 82 min with T84 monolayers [8] (apical chamber of T84 monolayers) and 43 min with T84 monolayers [8] (basolateral compartment of T84 monolayers).
